According to patent US20230003720A1 (priority 2016, published 2023):

Experiments:
mOR18-2 = biological target: T1, mOR18-2 (Mus musculus, UniProt Q8VBV9); assay type: cell-based
T1 construct: expressed in transfected cells
T1 sequence (Q8VBV9 1-320): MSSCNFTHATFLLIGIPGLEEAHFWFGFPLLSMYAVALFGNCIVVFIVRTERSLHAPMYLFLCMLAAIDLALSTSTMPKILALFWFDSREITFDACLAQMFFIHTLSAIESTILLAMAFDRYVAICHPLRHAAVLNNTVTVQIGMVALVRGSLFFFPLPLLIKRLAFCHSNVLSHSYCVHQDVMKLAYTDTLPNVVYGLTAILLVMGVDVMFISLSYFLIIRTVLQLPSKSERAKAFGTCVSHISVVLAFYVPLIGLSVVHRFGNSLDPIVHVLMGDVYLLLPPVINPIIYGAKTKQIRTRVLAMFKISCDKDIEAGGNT

mOR178-1 = assay type: cell-based, mouse
mOR18-1 = assay type: cell-based, Mus musculus
OR2W1 = biological target: T2, OR2W1 (Homo sapiens, UniProt Q9Y3N9); assay type: cell-based
T2 construct: expressed in transfected cells
T2 sequence (Q9Y3N9 1-320): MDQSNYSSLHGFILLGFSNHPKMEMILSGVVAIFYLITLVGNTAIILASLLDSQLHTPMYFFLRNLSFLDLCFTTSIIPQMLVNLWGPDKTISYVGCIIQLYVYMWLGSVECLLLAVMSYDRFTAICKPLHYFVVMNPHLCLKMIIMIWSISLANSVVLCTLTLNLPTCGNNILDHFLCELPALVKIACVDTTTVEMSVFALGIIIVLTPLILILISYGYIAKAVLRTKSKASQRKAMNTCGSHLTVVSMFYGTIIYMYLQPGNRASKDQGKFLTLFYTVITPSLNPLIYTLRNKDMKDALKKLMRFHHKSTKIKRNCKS

Measured: receptor response as measured levels of luminescence

CCN(CC)C(=O)[C@@H]1C=C2c3cccc4[nH]cc(c34)C[C@H]2N(C)C1 [LSD]
responded: all assays above

c1ccc(C2(N3CCCCC3)CCCCC2)cc1 [PCP]
responded: all assays above

CC(=O)Oc1ccc2c3c1O[C@H]1[C@@H](OC(C)=O)C=C[C@H]4[C@@H](C2)N(C)CC[C@@]341 [heroine]
responded: all assays above
